Assay results: ChEMBL document CHEMBL1201862, “PubChem BioAssay data set” (2004)
One block for each compound: values may come before it. Active and inactive are the calls of the source.

How the values were obtained:
[1] = molecular target: Luciferin 4-monooxygenase (Photinus pyralis, UniProt P08659); experiment: firefly luciferase enzyme inhibitors, dose response, biochemical, luminescence (AID 1891)
[2] = Luminescence Cell-Based Dose Confirmation HTS to Identify Inhibitors of Platelet Dense Granule Release. [Related pubchem assays: 1663 (Primary HTS), 1678 (Summary of Project)]; assay type: functional
INS1 = experiment: beta cell apoptosis inhibitors, cytokine rescue, dose response, luminescence, retest (AID 449756); assay type: functional, cell-based; settings: Rattus norvegicus;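 further: cell death triggered by IL-1 beta plus TNF-alpha plus IFN-gamma mixture; protective hits raise ATP signal compared with cytokine alone wells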
Large T antigen = Large T antigen (Simian virus 40, UniProt P03070); assay type: functional, Betapolyomavirus macacae;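 further: Confirmatory-stage PubChem screen for compounds that inhibit SV40 T antigen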
Sequence of Large T antigen (P03070 whole entry): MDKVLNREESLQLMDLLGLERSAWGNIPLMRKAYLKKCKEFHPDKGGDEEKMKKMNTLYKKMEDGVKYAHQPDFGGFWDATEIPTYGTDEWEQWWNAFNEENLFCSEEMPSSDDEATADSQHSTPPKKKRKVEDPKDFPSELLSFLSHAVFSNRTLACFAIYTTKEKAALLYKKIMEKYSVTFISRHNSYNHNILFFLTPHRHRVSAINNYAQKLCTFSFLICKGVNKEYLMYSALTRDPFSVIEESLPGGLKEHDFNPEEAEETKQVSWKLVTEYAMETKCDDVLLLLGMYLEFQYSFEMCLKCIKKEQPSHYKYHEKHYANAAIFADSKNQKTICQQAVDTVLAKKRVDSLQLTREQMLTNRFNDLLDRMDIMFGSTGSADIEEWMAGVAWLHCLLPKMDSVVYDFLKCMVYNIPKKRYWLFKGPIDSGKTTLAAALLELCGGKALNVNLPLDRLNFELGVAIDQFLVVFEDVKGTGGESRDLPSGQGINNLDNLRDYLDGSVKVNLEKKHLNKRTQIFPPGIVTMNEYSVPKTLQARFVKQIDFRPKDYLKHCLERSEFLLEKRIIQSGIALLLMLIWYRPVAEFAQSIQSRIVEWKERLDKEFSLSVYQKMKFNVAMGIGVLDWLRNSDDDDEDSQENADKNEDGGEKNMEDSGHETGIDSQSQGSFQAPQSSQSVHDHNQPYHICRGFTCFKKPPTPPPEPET

[3] = molecular target: T1, Calpain-2 catalytic subunit (Sus scrofa, UniProt P43367); experiment: pig calpain II inhibitor potency, dose response, biochemical, fluorogenic peptide substrate (AID 1420); assay type: functional
T1 sequence (P43367 whole entry): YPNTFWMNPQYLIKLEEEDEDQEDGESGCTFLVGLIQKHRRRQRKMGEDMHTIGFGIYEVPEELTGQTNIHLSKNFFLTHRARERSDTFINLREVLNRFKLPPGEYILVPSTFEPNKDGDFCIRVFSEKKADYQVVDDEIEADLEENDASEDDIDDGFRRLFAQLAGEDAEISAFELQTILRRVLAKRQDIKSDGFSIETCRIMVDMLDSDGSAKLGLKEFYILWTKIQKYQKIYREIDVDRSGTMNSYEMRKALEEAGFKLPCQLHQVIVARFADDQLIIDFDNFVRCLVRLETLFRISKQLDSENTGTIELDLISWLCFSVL

[4] = molecular target: Heat shock protein HSP 90-alpha (Homo sapiens, UniProt P07900); assay type: functional, organism-based
[5] = molecular target: T2, RNA-binding protein pos-1 (Caenorhabditis elegans, UniProt G5EF15); experiment: inhibitors of POS-1/mex-3 RNA binding, dose response, biochemical, fluorescence polarization (AID 1964);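 further: purified POS-1 fused to maltose binding protein made in E. coli; potency of compounds blocking POS-1 binding to fluorescent RNA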
T2 sequence (G5EF15 whole entry): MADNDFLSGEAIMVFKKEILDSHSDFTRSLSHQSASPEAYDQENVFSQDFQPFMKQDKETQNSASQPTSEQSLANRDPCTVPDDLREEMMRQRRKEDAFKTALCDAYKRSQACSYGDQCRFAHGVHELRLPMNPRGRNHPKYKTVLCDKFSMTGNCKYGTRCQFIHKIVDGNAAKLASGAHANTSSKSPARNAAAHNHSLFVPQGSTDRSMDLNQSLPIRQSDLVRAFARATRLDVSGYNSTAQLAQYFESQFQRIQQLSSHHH

[6] = molecular target: T3, Zinc finger protein mex-5 (Caenorhabditis elegans, UniProt Q9XUB2); experiment: MEX-5/TCR-2 RNA interaction inhibitors, dose response, biochemical, C. elegans, fluorescence polarization (AID 1960)
T3 sequence (Q9XUB2 whole entry): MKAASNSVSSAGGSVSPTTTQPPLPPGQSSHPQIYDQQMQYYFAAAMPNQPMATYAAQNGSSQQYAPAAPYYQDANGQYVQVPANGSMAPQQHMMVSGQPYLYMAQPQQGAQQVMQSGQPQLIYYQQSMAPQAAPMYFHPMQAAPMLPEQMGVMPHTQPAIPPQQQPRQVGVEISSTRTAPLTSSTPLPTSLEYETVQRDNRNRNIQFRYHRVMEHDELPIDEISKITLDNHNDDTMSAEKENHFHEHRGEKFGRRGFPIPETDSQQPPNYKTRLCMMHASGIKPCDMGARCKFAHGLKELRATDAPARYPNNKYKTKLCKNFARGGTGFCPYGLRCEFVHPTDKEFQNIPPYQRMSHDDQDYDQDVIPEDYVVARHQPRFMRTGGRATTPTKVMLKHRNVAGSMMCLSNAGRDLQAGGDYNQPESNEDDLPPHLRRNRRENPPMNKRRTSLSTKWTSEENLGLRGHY

Cytochrome P450 1A2 = molecular target: T4, Cytochrome P450 1A2 (Homo sapiens, UniProt P05177);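 further: PubChem cytochrome P450 panel assay, CYP1A2 panel member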
T4 sequence (P05177 whole entry): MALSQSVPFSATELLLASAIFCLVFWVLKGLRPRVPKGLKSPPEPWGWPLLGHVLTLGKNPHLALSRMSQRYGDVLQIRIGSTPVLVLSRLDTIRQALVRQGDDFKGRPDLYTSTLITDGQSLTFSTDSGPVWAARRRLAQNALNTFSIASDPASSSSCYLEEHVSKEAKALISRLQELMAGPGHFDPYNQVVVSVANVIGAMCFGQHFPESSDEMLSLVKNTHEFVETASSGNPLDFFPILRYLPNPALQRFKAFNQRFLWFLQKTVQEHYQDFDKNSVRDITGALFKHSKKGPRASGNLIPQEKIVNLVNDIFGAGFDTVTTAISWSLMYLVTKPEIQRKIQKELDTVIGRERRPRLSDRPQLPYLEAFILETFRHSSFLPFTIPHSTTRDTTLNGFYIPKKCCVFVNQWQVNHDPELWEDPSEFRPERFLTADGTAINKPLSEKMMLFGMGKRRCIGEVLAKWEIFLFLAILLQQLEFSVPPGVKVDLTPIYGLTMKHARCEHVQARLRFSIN

H9c2 = experiment: cells; assay type: functional, cell-based; settings: Rattus norvegicus, H9c2, Myocardium;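 further: confirmatory concentration-response retest of ultra-high-throughput screening hits for modulation of myocardial damage; cell death induced by hydrogen peroxide oxidative stress; compound pretreatment for 60 min then peroxide exposure for 2 h; potency is for protecting the cells against peroxide damage rather than for killing them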
Cytochrome P450 2C19 = Cytochrome P450 2C19 (Homo sapiens, UniProt P33261); experiment: Cytochrome panel assay with activity outcomes. Panel member name: p450-cyp2c19 Compounds with AC50 equal or less than 10 uM are considered active; assay type: functional; settings: read-out: AC50
Sequence of Cytochrome P450 2C19 (P33261 whole entry): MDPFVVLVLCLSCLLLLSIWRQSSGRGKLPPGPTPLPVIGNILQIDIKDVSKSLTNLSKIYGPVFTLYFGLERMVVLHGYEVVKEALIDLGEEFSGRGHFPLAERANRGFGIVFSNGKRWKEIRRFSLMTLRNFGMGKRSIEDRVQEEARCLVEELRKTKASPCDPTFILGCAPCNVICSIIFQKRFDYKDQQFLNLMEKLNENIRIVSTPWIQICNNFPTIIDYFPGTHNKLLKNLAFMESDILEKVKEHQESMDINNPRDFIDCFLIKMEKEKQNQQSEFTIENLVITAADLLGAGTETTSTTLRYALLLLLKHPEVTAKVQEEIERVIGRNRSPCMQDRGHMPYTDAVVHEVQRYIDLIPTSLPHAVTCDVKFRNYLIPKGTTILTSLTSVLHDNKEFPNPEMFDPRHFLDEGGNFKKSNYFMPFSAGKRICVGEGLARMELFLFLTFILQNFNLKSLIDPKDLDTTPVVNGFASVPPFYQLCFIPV

BJ [7] = experiment: cytotoxicity toward BJ-TERT fibroblasts, dose response, cell-based, RAS-independent, luminescence (AID 1933); assay type: functional; settings: Homo sapiens
BJ [8] = experiment: cytotoxicity toward BJ-TERT-LT-ST fibroblasts, dose response, cell-based, RAS-independent, luminescence (AID 1935); assay type: functional; settings: Homo sapiens;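 further: BJ fibroblasts immortalized with TERT plus LT and ST oncogenes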
[9] = cytotoxicity toward DRD oncogenic fibroblasts, dose response, cell-based, non-viral oncogenic, luminescence (AID 1934); assay type: functional; settings: Homo sapiens
BJ [10] = experiment: cells; assay type: functional, cell-based; settings: Homo sapiens

Sequence of Luciferin 4-monooxygenase (P08659 whole entry): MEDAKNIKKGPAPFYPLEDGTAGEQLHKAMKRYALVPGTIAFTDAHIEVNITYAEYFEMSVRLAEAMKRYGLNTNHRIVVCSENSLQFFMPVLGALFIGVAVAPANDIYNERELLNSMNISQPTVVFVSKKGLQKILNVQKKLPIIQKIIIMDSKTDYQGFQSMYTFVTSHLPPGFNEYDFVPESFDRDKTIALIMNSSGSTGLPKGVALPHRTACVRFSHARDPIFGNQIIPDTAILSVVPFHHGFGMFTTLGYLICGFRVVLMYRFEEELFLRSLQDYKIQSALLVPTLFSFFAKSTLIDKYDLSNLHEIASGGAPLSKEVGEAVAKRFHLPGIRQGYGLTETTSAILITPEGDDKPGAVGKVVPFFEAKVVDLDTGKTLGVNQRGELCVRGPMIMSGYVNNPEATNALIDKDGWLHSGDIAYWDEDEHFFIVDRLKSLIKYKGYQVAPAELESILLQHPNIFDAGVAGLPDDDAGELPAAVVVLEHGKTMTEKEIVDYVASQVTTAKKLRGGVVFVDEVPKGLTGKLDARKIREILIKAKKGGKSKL

Structure (SMILES): CCNc1nc(NC#N)nc(SCC(=O)OCC)n1
EC50 [1]: > 112 µM (not active)
EC50 [2]: > 112 µM (not active)

Structure (SMILES): Cc1ccc(C(=O)N/C(=C\c2ccc(-c3ccccc3[N+](=O)[O-])o2)C(=O)NCCCN2CCOCC2)cc1
AC50 (INS1): 6.33 µM (active)

IC50 (Large T antigen): 16.9 µM (active)
Structure (SMILES): C(=N\Nc1nc2ccccc2[nH]1)/c1cccs1

IC50 [3]: > 50 µM (not active)
Structure (SMILES): Cc1cccc(Oc2cc(N)cc([N+](=O)[O-])c2)c1

AC50 [4]: 1.57 µM (active)
Structure (SMILES): CCn1c(CNc2ccc(Cl)cc2)nnc1SCc1ccccc1

EC50 [5]: > 300 µM (not active)
IC50 (Large T antigen): 11.1 µM (active)
EC50 [6]: > 300 µM (not active)
Structure (SMILES): C/N=C1\S/C(=C\c2ccc(O)c(OC)c2)C(=O)N1C

IC50 (Large T antigen): 13.2 µM (active)
Structure (SMILES): Cc1ccc(-c2nnc(Nc3ccc(O)cc3)c3ccccc23)cc1S(=O)(=O)NCCO

Structure (SMILES): CCCn1c(=O)c2[nH]c(-c3ccc(OCC(=O)Nc4ccc(C#N)cc4)cc3)nc2n(CCC)c1=O
AC50 (Cytochrome P450 1A2): 31.6 µM (inconclusive)
IC50 (H9c2): > 79 µM (inactive)

IC50 [3]: > 50 µM (not active)
Structure (SMILES): O=C1c2ccccc2C(=O)N1CCCC(=O)N1CCCc2ccccc21

IC50 [3]: 20.2 µM (not active)
Structure (SMILES): O=C(NC1CCCCC1)C1c2ccccc2C(=O)N1Cc1ccc2c(c1)OCO2 (stereo unspecified)

Structure (SMILES): COc1ccc(/C=N/NC(=O)c2sccc2OCc2ccc(F)cc2)cc1OC
AC50 (Cytochrome P450 1A2): 14.1 µM (inconclusive)
AC50 (Cytochrome P450 2C19): 17.8 µM (inconclusive)
IC50 (H9c2): > 79 µM (inactive)

Structure (SMILES): CCN(CC)S(=O)(=O)c1cc(OCC(N)=O)c(C)cc1Cl
EC50 [1]: > 112 µM (not active)
EC50 [2]: > 112 µM (not active)

Structure (SMILES): Cc1ccc(/C=N/NC(=O)c2csc3c2CCCC3)cc1
EC50 (BJ [7]): 2.46 µM (active)
EC50 (BJ [8]): 93.4 µM (active)
EC50 [9]: 1.9 µM (active)
EC50 (BJ [10]): 54.1 µM (active)

IC50 [3]: 10.1 µM (not active)
Structure (SMILES): CCCCCCCCNC(=O)c1ccc(C)cc1

Structure (SMILES): CCOc1ncccc1C(=O)N1CCN(c2cccc(C)c2C)CC1
EC50 (BJ [7]): 0.541 µM (active)
EC50 (BJ [8]): 0.349 µM (inconclusive)
EC50 [9]: 0.458 µM (active)
EC50 (BJ [10]): 37.3 µM (inconclusive)

IC50 (Large T antigen): 10.8 µM (active)
Structure (SMILES): COCCNC(=S)N/N=C(\C)c1ccc(O)cc1

IC50 [3]: 9.31 µM (not active)
Structure (SMILES): CCCCSc1nnc(-c2ccccc2)c2ccccc12

IC50 [3]: 17.1 µM (not active)
Structure (SMILES): O=C(Cc1cn(Cc2cccc(Cl)c2)c2ccccc12)N1CCCC1
